From patent publication US20210204574A1, “Consumable Product Comprising Malted Wheat” (Lantmannen Functional Foods AB, priority 2018, published 2021) come the findings set out here.

For the first experiment, the system named is cholera toxin-induced secretion.
Test: not given
Further details: species or system Sprague-Dawley rats. The settings on record: rat, in vivo.
In the case of `Oc1cc2c(cc1O)CN(C(=S)NCCc1ccc(Cl)cc1)CCC2` [Capsazepine], the AF units is recorded as 0.8 ± 0.1 1.3 ± 0.1 AF units; the “Inhibition, %” value is reported as 38 66%; the “antisecretory activity of pure phenols (in words)” value (“antisecretory activity” below) is listed as “as active as guaiacol”.
Consider `COc1ccc([C@@H]2OC[C@@H]3[C@H]2CO[C@H]3c2ccc(OC)c(OC)c2)cc1OC` [Eudesmine], for which the “Inhibition, %” value worked out at 16% and the “antisecretory activity” value is “increased secretion”.
Consider `COc1cc(/C=C/C(=O)O)ccc1O` [Ferulic acid], for which the AF units came out at 1.2 ± 0.2 AF units; the “Inhibition, %” value was 67%; the “antisecretory activity” value is reported as “significant antisecretory activity”.
Take `COc1ccccc1O` [Guaiacol, 2-methoxyphenol]: the AF units is listed as 0.9 ± 0.3 1.0 ± 0.2 1.5 ± 0.2 AF units; the “Inhibition, %” value is listed as 46 51 76%; the “antisecretory activity” value is reported as “induced antisecretory activity as early as day 1”.
As for `O=c1c(O)c(-c2ccc(O)c(O)c2)oc2cc(O)cc(O)c12` [Quercetin], the AF units was found to be 0.8 ± 0.1 AF units; the “Inhibition, %” value came to 42%; the “antisecretory activity” value is “significant antisecretory activity”.
In the same order, the values of `Oc1cccc(O)c1` [Resorcinol] are 0.6 ± 0.1 AF units, 30% and “much smaller effect”.
Consider `OCc1ccccc1O[C@@H]1O[C@H](CO)[C@@H](O)[C@H](O)[C@H]1O` [Salicin], for which the AF units worked out at 0.3 ± 0.1 AF units; the “Inhibition, %” value amounted to 17%; the “antisecretory activity” value is “much smaller effect”.
With `COc1cc(C(=O)O)ccc1O` [Vanillic acid], the AF units came out at 1.1 ± 0.1 AF units; the “Inhibition, %” value was 57%; the “antisecretory activity” value is recorded as “significant antisecretory activity”.
For the compound `COc1ccccc1OC` [Veratrole], the “Inhibition, %” value came out at 21% and the “antisecretory activity” value was “induced secretion”.

The next experiment relates to compleasomes (proteasome/complement complexes). Description: Compleasome assay in blood (sandwich ELISA, mab against AF / polyclonal against C3c). It counts as in vivo, Sprague-Dawley rats. The settings on record: FIG. 10a; 5 μM phenol or leachate in drinking water for 14 days; reversed titre. Here is the method:
In another set of experiments, the rats were given water extracts of the cereals or purified phenols in their drinking water. The malted Kosack wheat was milled to flour, of which 200 g was put in a glass flask and 800 ml boiling water was successively mixed with the flour. After 3 hours of slow cooling to room temperature, the soak-water was filtered through a nylon filter and centrifuged for 30 min at 12000×g. The supernatant was frozen in 50 ml portions and diluted 1:6 with water each day during the experiment. Freeze-dried purified fractions of wheat extracts were dissolved in the drinking water. […] The drinks or the water control were given in excess over 1-14 days before testing of antisecretory activity.
Rats were given leachate from malted wheat or pure phenols in the drinking water as described above. After 14 days, blood samples were drawn as described elsewhere (Bjorck et al., 2000 and Lönnroth et al., 2016) and the antisecretory activity in blood was estimated by performing a sandwich enzyme-linked immunosorbent assay (ELISA) for detection of compleasomes (proteasome/complement complexes) in blood plasma as described elsewhere (Lonnroth et al., 2016). A monoclonal antibody (mab) against antisecretory factor was used as catching antibody and a polyclonal antibody against complement factor 3c as detecting antibody. The titre was determined after development by a secondary antibody coupled to alkaline phosphatas.
On the technique in general: ELISA stands for enzyme-linked immunosorbent assay.
In the case of `COc1cc(/C=C/C(=O)O)ccc1O` [Ferulic acid], the “proteasome/C3 complex (AF activity in blood) compared to controls” value is given as “significantly higher”.
As for `COc1ccccc1O` [Guaiacol, 2-methoxyphenol], the “proteasome/C3 complex (AF activity in blood) compared to controls” value is recorded as “significantly higher”.

The experiment is the same for the next values; noted with them: FIG. 10b; in drinking water for 14 days, 5 animals/group.
Turning to `COc1cc(/C=C/C(=O)O)cc(OC)c1O` [sinapic acid], the “compleasome concentration (AF activity in blood)” value is “significant increase”.
On the same count and under the same terms, the same measure for catechin: “significant increase”.
